In US8642801B2 (BHI Limited Partnership, priority 2003, dated 2014):

Target: T1, Aβ40 and Aβ42 peptides in plasma and brain of TgCRND8 mice (Homo sapiens, UniProt P05067)
T1 construct: ELISA using Human Aβ40 and Aβ42 Fluorometric ELISA kits from Biosource; from tissue; host or cells: plasma and brain homogenate of TgCRND8 transgenic mice (hAPP transgene)
Experiment: Long term treatment in adult transgenic CRND8 mice overexpressing βAPP: Aβ levels in plasma and brain by ELISA
Type: in vivo, Mouse
Conditions: BX subcutaneous, BW and BZ oral, vs vehicle or methylcellulose control
Source text: Transgenic mice, TgCRND8, as those used in the short term treatment, overexpress a human APP gene with the Swedish and Indiana mutations leading to the production of high levels of the amyloid peptides and to the development of an early-onset, aggressive development of brain amyloidosis. The high levels of Aβ peptides and the relative overabundance of Aβ42 compared to Aβ40 are believed to be associated with the severe and early degenerative pathology observed. The pattern of amyloid deposition, presence of dystrophic neuritis, and cognitive deficit has been well documented in this transgenic mouse line. The levels of Aβ peptides in the brain of these mice increase dramatically as the animals age. While the total amyloid peptide levels increase from ˜1.6×10^5 pg/g of brain to ˜3.8×10^6 between 9 and 17 weeks of age.
The long-term therapeutic effects of compounds of the present invention on cerebral amyloid deposition and β-amyloid (Aβ) levels in the plasma and in the brains of transgenic mice, TgCRND8, expressing the human amyloid precursor protein (hAPP) was studied. These compounds were administered over an 8 or 16 week period at the end of which the levels of Aβ peptides in the plasma and brain of TgCRND8 animals were determined. The goal of this study was to evaluate the efficacy of the compounds at modulating the progression of the amyloidogenic process in the brain and in the plasma of a transgenic mouse model of Alzheimer's disease (AD)
The mice used in the study consisted of animals bearing one copy of the hAPP gene (+/−) from the 2nd and 3rd generation progenies (N2 and N3) derived from backcrosses from TgCRND8.FVB(N2)AJ(N3) with B6AF1/J hybrid animals. N1=TgCRND8.FVB(N2)AJ(N3)×B6AF1/J N2=TgCRND8.FVB(N2)AJ(N3).B6AF1/J(N1)×B6AF1/J N3=TgCRND8.FVB(N2)AJ(N3).B6AF1/J(N2)×B6AF1/a
The following abbreviations are used to designate these animals in the present study: TgCRND8.B6AF1/J(N2); TgCRND8.B6AF1/J(N3). Male and female transgenic mice were given daily subcutaneous (compound BX) or oral (compounds BW and BZ) administrations of the appropriate compounds for 8 or 16 weeks.
Baseline animals consisted of 9±1 week old naive TgCRND8.B6AF1/J animals from the 2nd and 3rd generations. These mice were used to determine the extent of cerebral amyloid deposits and Aβ levels in the plasma and brain of naive transgenic animals at the initiation of treatment.
Starting at 9 weeks of age (±1 week) animals received daily administration of their respective treatment for a period of 8 or 16 weeks, at a dose of 30 or 100 mg/kg at 10 ml/kg. The route of administration was subcutaneous for water-soluble compounds (Compound BX) and oral for compounds solubilized in methylcellulose 1% (MC 1%) (Compounds BW and BZ). At the end of the treatment periods, plasma and perfused brains were collected for quantification of Aβ levels.
Animal health was monitored, samples were collected and Aβ levels were measured as described above in the short term treatment study. Compounds were scored based on their ability to modulate levels of Aβ peptides in the plasma and the cerebral soluble/insoluble levels in the brain. Levels of Aβ observed in the plasma and brain of treated animals were compared to that of vehicle-treated (water) or methylcellulose-treated control groups and ranked according to the strength of the pharmacological effect. Increases in the levels of Aβ peptides are indicated using “+” symbols, while decreases in the levels of Aβ peptides are indicated using “−” symbols. The strongest effects are recorded as “+++” or “−−−” while the weakest are shown as “+” or “−”.
Specifically, increases in the levels of Aβ (relative to vehicle treated control) of 5 to 14% are scored as “+”; increases of 15 to 29% are scored as “++”; and increases of 30% or higher are scored as “+++”. Decreases in the levels of Aβ of 5 to 14% are scored as “−”; decreases of 15 to 29% are scored as “−−”; and decreases of 30% or more are scored as “−−−”. […]

SMILES: CC(C)(C)NCCCS(=O)(=O)O [BX, 3-(t-butyl)amino-1-propanesulfonic acid]
- Brain Abeta40 insoluble (30 mg/kg daily, 8 wks): −−− (decreases of 30% or more are scored as “−−−”)
- Brain Abeta40 soluble (30 mg/kg daily, 8 wks): −−− (decreases of 30% or more are scored as “−−−”)
- Brain Abeta42 insoluble (30 mg/kg daily, 8 wks): −− (decreases of 15 to 29% are scored as “−−”)
- Brain Abeta42 soluble (30 mg/kg daily, 8 wks): −−− (decreases of 30% or more are scored as “−−−”)
- Plasma Abeta40 (30 mg/kg daily, 8 wks): + (increases in the levels of Aβ (relative to vehicle treated control) of 5 to 14% are scored as “+”)
- Plasma Abeta42 (30 mg/kg daily, 8 wks): + (increases in the levels of Aβ (relative to vehicle treated control) of 5 to 14% are scored as “+”)
- Brain Abeta40 insoluble (30 mg/kg daily, 16 wks): −−− (decreases of 30% or more are scored as “−−−”)
- Brain Abeta40 soluble (30 mg/kg daily, 16 wks): −− (decreases of 15 to 29% are scored as “−−”)
- Brain Abeta42 insoluble (30 mg/kg daily, 16 wks): − (Decreases in the levels of Aβ of 5 to 14% are scored as “−”)
- Brain Abeta42 soluble (30 mg/kg daily, 16 wks): 0 (changes of 4% or less in either direction are scored as “0”)
- Plasma Abeta40 (30 mg/kg daily, 16 wks): − (Decreases in the levels of Aβ of 5 to 14% are scored as “−”)
- Plasma Abeta42 (30 mg/kg daily, 16 wks): − (Decreases in the levels of Aβ of 5 to 14% are scored as “−”)
- Brain Abeta40 insoluble (100 mg/kg daily, 8 wks): ++ (increases of 15 to 29% are scored as “++”)
- Brain Abeta40 soluble (100 mg/kg daily, 8 wks): + (increases in the levels of Aβ (relative to vehicle treated control) of 5 to 14% are scored as “+”)
- Brain Abeta42 insoluble (100 mg/kg daily, 8 wks): 0 (changes of 4% or less in either direction are scored as “0”)
- Brain Abeta42 soluble (100 mg/kg daily, 8 wks): + (increases in the levels of Aβ (relative to vehicle treated control) of 5 to 14% are scored as “+”)
- Plasma Abeta40 (100 mg/kg daily, 8 wks): ++ (increases of 15 to 29% are scored as “++”)
- Plasma Abeta42 (100 mg/kg daily, 8 wks): +++ (increases of 30% or higher are scored as “+++”)
- Brain Abeta40 insoluble (100 mg/kg daily, 16 wks): −−− (decreases of 30% or more are scored as “−−−”)
- Brain Abeta40 soluble (100 mg/kg daily, 16 wks): − (Decreases in the levels of Aβ of 5 to 14% are scored as “−”)
- Brain Abeta42 insoluble (100 mg/kg daily, 16 wks): −− (decreases of 15 to 29% are scored as “−−”)
- Brain Abeta42 soluble (100 mg/kg daily, 16 wks): 0 (changes of 4% or less in either direction are scored as “0”)
- Plasma Abeta40 (100 mg/kg daily, 16 wks): − (Decreases in the levels of Aβ of 5 to 14% are scored as “−”)
- Plasma Abeta42 (100 mg/kg daily, 16 wks): 0 (changes of 4% or less in either direction are scored as “0”)
